From patent US10864197B2, “Biphenyl sulfonamide compounds for the treatment of kidney diseases or disorders” (Retrophin, Inc., priority 2016, dated 2020)

Assay: DUET trial: treatment emergent adverse events and edema severity
Format: in vivo, human
Settings: for Patients with Edema, Severity Grade 0 / Patients with Edema, Severity Grade 1+ to 2+ / Patients with Edema, Severity Grade 3+ to 4+ / Percent of patients having treatment emergent adverse effects: Any / Percent of patients having treatment emergent adverse effects: Drug-related / Percent of patients having treatment emergent adverse effects: Leading to dose change or interruption / Percent of patients having treatment emergent adverse effects: Leading to drug discontinuation / Percent of patients having treatment emergent adverse effects: Leading to study withdrawal / Percent of patients having treatment emergent adverse effects: Serious / Percent of patients with Cough / Percent of patients with Diarrhea / Percent of patients with Dizziness / Percent of patients with Edema/edema peripheral / Percent of patients with Fatigue / Percent of patients with Headache / Percent of patients with Hypotension/orthostatic hypotension / Percent of patients with Muscle spasms / Percent of patients with Nasal congestion / Percent of patients with Nausea / Percent of patients with Upper abdominal pain / Percent of patients with Upper respiratory tract infection / Percent of patients with Vomiting: human, in vivo; for Percent of patients having treatment emergent adverse effects: Death: irbesartan n=36, sparsentan all doses n=73
Text: DUET trial is a phase 2, double-blind, randomized, active-control, dose-escalation study (NCT01613118) that evaluates the efficacy and safety of sparsentan as a treatment for primary focal segmental glomerulosclerosis (FSGS), a rare disorder characterized by massive proteinuria and progressive loss of kidney function. Patients (ranging in age from 8 years to 75 years) with biopsy-proven primary FSGS (or documentation of a genetic mutation in a podocyte protein associated with the disease) having baseline urine protein to creatinine (“UP/C”) ratios greater than 1 g/g and estimated glomerular filtration rates greater than 30 ml/min were eligible for the study. The inclusion criteria also included a mean seated blood pressure >[…] and <145/96 mmHg for patients aged 18 years or older, or, for patients aged <18 years of age, a mean seated blood pressure of >90/60 mmHg and <95th percentile for age, gender, and height. The inclusion criteria included an allowance for a stable dose of immunosuppressive medication for ≥1 month. Exclusion criteria included secondary FSGS; significant medical conditions related to cardiac, hepatic, or immune function; body mass index >[…] for adults or in the 99th percentile plus 5 for pediatric patients; hematocrit <27% or hemoglobin <[…]; serum potassium >5.5 mEq/L; and women who were pregnant, breastfeeding, or of child-bearing potential who were unwilling to use two methods of contraception.
Patients who signed consent and met all inclusion and exclusion criteria during the screening phase underwent a 2-week angiotensin receptor blocker (ARB) and angiotensin converting enzyme (ACE) inhibitor washout period before being randomly assigned to one of the three escalating dose cohorts receiving sparsentan (200 mg/day; 400 mg/day; and 800 mg/day) or a fixed maximal dose of active control (the ARB irbesartan, at 300 mg/day) in a 3:1 ratio within each cohort. The primary endpoint was the change in UP/C ratio (determined as a measure of urinary protein excretion) from baseline. The proportion of patients achieving UP/C ratio ≤1.5 g/g with >40% reduction in UP/C ratio at Week 8, a modified responder analysis, was evaluated as secondary endpoint.
The incidences of specific treatment emergent adverse events for which the incidence was greater than 5% across all patients are shown in Table 7. Symptoms such as headache, dizziness, and edema may be associated with hypotension and some of those symptoms were more frequent in patients treated with sparsentan relative to those patients treated with irbesartan. However, there was no significant different between irbesartan-treated patients and sparsentan-treated patients in the worsening of existing edema (Table 8).

With CCCCC1=NC2(CCCC2)C(=O)N1Cc1ccc(-c2ccccc2-c2nnn[nH]2)cc1 [Irbesartan, irbesartan, reference compound] the “Patients with Edema, Severity Grade 0” value was 76%, the “Patients with Edema, Severity Grade 1+ to 2+” value (“Patients with Edema … to 2+” below) was 21% and the “Patients with Edema, Severity Grade 3+ to 4+” value (shortened to “Patients with Edema … to 4+”) was 3%. For the same compound, the “Patients with Edema, Severity Grade 0” value (8 weeks) was 86%, the “Patients with Edema … to 2+” value (8 weeks) was 14% and the “Patients with Edema … to 4+” value (8 weeks) was 0%. The “Percent of patients having treatment emergent adverse effects: Any” value (8 weeks) was 72.2%, the “Percent of patients having treatment emergent adverse effects: Drug-related” value (8 weeks) was 36.1% and the “Percent of patients having treatment emergent adverse effects: Leading to dose change or interruption” value (8 weeks) was 8.3%. The “Percent of patients having treatment emergent adverse effects: Leading to drug discontinuation” value (8 weeks) was 2.8%, the “Percent of patients having treatment emergent adverse effects: Leading to study withdrawal” value (8 weeks) was 2.8% and the “Percent of patients having treatment emergent adverse effects: Serious” value (8 weeks) was 2.8%. For the same compound, the “Percent of patients with Cough” value (8 weeks) was 5.6%, the “Percent of patients with Diarrhea” value (8 weeks) was 2.8% and the “Percent of patients with Dizziness” value (8 weeks) was 11.1%. The “Percent of patients with Edema/edema peripheral” value (8 weeks) was 2.8%, the “Percent of patients with Fatigue” value (8 weeks) was 11.1% and the “Percent of patients with Headache” value (8 weeks) was 19.4%. The “Percent of patients with Hypotension/orthostatic hypotension” value (8 weeks) was 8.3%, the “Percent of patients with Muscle spasms” value (8 weeks) was 5.6% and the “Percent of patients with Nasal congestion” value (8 weeks) was 11.1%. For the same compound, the “Percent of patients with Nausea” value (8 weeks) was 8.3%, the “Percent of patients with Upper abdominal pain” value (8 weeks) was 5.6% and the “Percent of patients with Upper respiratory tract infection” value (8 weeks) was 5.6%. The “Percent of patients with Vomiting” value (8 weeks) was 2.8% and the “Percent of patients having treatment emergent adverse effects: Death” value was 0%.
For CCCCC1=NC2(CCCC2)C(=O)N1Cc1ccc(-c2ccccc2S(=O)(=O)Nc2noc(C)c2C)c(COCC)c1 [Sparsentan, 4′-((2-butyl-4-oxo-1,3-diazaspiro[4.4]non-1-en-3-yl)methyl)-N-(4,5-dimethylisoxazol-3-yl)-2′-(ethoxymethyl)-[1,1′-biphenyl]-2-sulfonamide], the “Patients with Edema, Severity Grade 0” value was 66%, the “Patients with Edema … to 2+” value was 32% and the “Patients with Edema … to 4+” value was 2%. For the same compound, the “Patients with Edema, Severity Grade 0” value (8 weeks) was 65%, the “Patients with Edema … to 2+” value (8 weeks) was 30% and the “Patients with Edema … to 4+” value (8 weeks) was 5%. The “Percent of patients having treatment emergent adverse effects: Any” value (8 weeks) was 76.7%, the “Percent of patients having treatment emergent adverse effects: Drug-related” value (8 weeks) was 43.8% and the “Percent of patients having treatment emergent adverse effects: Leading to dose change or interruption” value (8 weeks) was 23.3%. The “Percent of patients having treatment emergent adverse effects: Leading to drug discontinuation” value (8 weeks) was 4.1%, the “Percent of patients having treatment emergent adverse effects: Leading to study withdrawal” value (8 weeks) was 2.7% and the “Percent of patients having treatment emergent adverse effects: Serious” value (8 weeks) was 2.7%. The “Percent of patients with Cough” value (8 weeks) was 4.1%, the “Percent of patients with Diarrhea” value (8 weeks) was 8.2% and the “Percent of patients with Dizziness” value (8 weeks) was 13.7%. For the same compound, the “Percent of patients with Edema/edema peripheral” value (8 weeks) was 12.3%, the “Percent of patients with Fatigue” value (8 weeks) was 4.1% and the “Percent of patients with Headache” value (8 weeks) was 19.2%. The “Percent of patients with Hypotension/orthostatic hypotension” value (8 weeks) was 16.4%, the “Percent of patients with Muscle spasms” value (8 weeks) was 0% and the “Percent of patients with Nasal congestion” value (8 weeks) was 2.7%. For the same compound, the “Percent of patients with Nausea” value (8 weeks) was 12.3%, the “Percent of patients with Upper abdominal pain” value (8 weeks) was 5.5% and the “Percent of patients with Upper respiratory tract infection” value (8 weeks) was 2.7%. For the same compound, the “Percent of patients with Vomiting” value (8 weeks) was 8.2% and the “Percent of patients having treatment emergent adverse effects: Death” value was 0%.
